Series [1] relates to barnyard grass Echinochloa crusgalli. Put plainly: Petri dish culture, growth inhibition of root and stalk of barnyard grass. The series is classed as in vivo. The settings on record: Echinochloa crus-galli, 120 h, 5 days; for inhibition at 1 µg/mL: 1 mg/L; for inhibition at 10 µg/mL: 10 mg/L. The method, boiled down: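 Herbicidal activity toward the monocot barnyard grass (Echinochloa crusgalli) was assessed with a standard Petri dish pre-emergence test. Twenty seeds sat on two filter papers in a 9 cm dish wetted with 9 mL of test solution. Dishes were incubated 5 days at 23 ± 1 °C, 60 ± 5% humidity, 10 Klux, 12 h/day light. Mean lengths of 10 roots and 10 stems gave percent inhibition versus distilled-water controls.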

For series [2], the system named is rape Brassica napus. Briefly: Concentration-dependent root elongation inhibition of rape (IC50). The series is classed as in vivo. Particulars: Brassica napus; rape root elongation, Table 3; read-out: IC50 for the root elongation inhibition of rape. How it is done:
Several representative compounds selected from the 2-phenoxy-4H-3,1-benzoxazin-4-one and 2-phenoxy-3H-quinazolin-4-one groups were tested their concentration dependant activities and the half maximal inhibitory concentrations (IC50 values) are shown in Table 3. Obviously, the 2-phenoxy-4H-3,1-benzoxazin-4-ones 3m and 3o have IC50 values near to that of the commercial herbicidal 2,4-D. More importantly, these molecules consist of 2-phenoxymethyl group with halo substituents both at the 2- and 4- positions of the benzene ring, a similar pattern to the commercial hormone herbicides 2,4-D, clomeprop, and 2,4-DB, as well as the ACCase herbicide diclofop-methyl. […] Moreover, if no halo group exists on the benzene ring, the activity will decrease dramatically. On the other hand, the substructure 4H-3,1-benzoxazin-4-one in this work and the carboxylic group in the commercial phenoxyethanoic and phenoxypropionic acid herbicides play also a crucial role in the contribution to the activities of the compounds, meaning they are active substructures.
The herbicidal activity was examined for the growth inhibition effect of the dicotyledon rape Brassica napus and the monocotyledon barnyard grass Echinochloa crusgalli, using the standard Petri dish test and the pre-emergence treatment procedure. Briefly, the compounds to be tested were dissolved in DMF and emulsified with Tween 80, and the solutions were diluted with water to the concentrations of […], respectively. Nine mL of the solution was added in a Petri dish of 9 cm diameter and two pieces of filter paper were placed on the dish bottom. Twenty seeds each of rape and barnyard grass were placed on the filter paper. The covered Petri dish was transferred into an artificial climate incubator (MGC-400H, Shantou Keyi Co., Ltd., China), where the conditions were controlled at temperature 23 ± 1 °C, humidity 60 ± 5%, light intensity 10 Klux, and photoperiod 12 h/day. The incubation was continued for 5 days, then the lengths of 10 roots and 10 stems for each type of plant were measured and the mean values were calculated. The percent inhibitory ratios were calculated relative to control plants exposing to distilled water instead of the compound solution.

The test system of series [3] is rape Brassica napus. Put plainly: Petri dish culture, growth inhibition of root and stalk of rape. The series is classed as in vivo. Particulars: Brassica napus, 120 h, 5 days; for inhibition at 1 µg/mL: 1 mg/L; for inhibition at 10 µg/mL: 10 mg/L. The method, boiled down: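 Herbicidal activity against the dicotyledon rape (Brassica napus) was assessed using a standard Petri dish pre-emergence test. Twenty seeds were placed on two filter papers in a 9 cm dish containing 9 mL of test solution. Dishes were incubated for 5 days at 23 ± 1 °C, 60 ± 5% humidity, 10 Klux light, 12 h/day photoperiod. Ten roots and ten stalks were then measured, and percent growth inhibition was calculated relative to distilled-water controls.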

Where [4] appears, read: root growth, read-out: Relative inhibition, root.
[5] abbreviates: stalk growth, read-out: Relative inhibition, stalk.

Structures are written as SMILES. Like-named read-outs stand apart in the source and are kept apart here.

As a reminder, the inhibition is the drop in the measured response relative to a control, in per cent. By IC50 is commonly meant the concentration needed to halve the response being measured. The term melting point denotes the temperature, or range, at which the solid turns liquid. `COc1cc2nc(COc3ccc(Cl)cc3)oc(=O)c2cc1OC` [3l, 2-((4-Chlorophenoxy)methyl)-6,7-dimethoxy-4H-3,1-benzoxazin-4-one] displayed a melting point of 118.5 to 119.3 °C. Besides, in series [1] (setting [4]), the inhibition at 1 µg/mL was found to be 65.5% and the inhibition at 10 µg/mL worked out at 78.7%. Also, in series [1] (setting [5]), the inhibition at 1 µg/mL was determined as 12.8% and the inhibition at 10 µg/mL is 22%. Also, the IC50 with rape Brassica napus [2] was determined as 80.1 µM. Further, in the series on rape Brassica napus [3] (setting [4]), the inhibition at 1 µg/mL worked out at 96.3% and the inhibition at 10 µg/mL was found to be 100%. For the same molecule, in the series on rape Brassica napus [3] (setting [5]), the inhibition at 1 µg/mL is 74.5% and the inhibition at 10 µg/mL is 83.4%.

For the molecule `O=c1oc(COc2ccc(Cl)cc2Cl)nc2cccc(Cl)c12` [3n, 5-Chloro-2-((2,4-dichlorophenoxy)methyl)-4H-benzo[3,1]oxazin-4-one], the melting point fell in the range of 161.9 to 163.2 °C. In series [1] (setting [4]), the inhibition at 1 µg/mL turned out to be 44.4% and the inhibition at 10 µg/mL is 57.5%. In addition, in series [1] (setting [5]), the inhibition at 1 µg/mL amounted to 12.8% and the inhibition at 10 µg/mL is -1.9%. In addition, the half-maximal inhibitory concentration (IC50) in the series on rape Brassica napus [2] came to 43.5 µM. In addition, in the series on rape Brassica napus [3] (setting [4]), the inhibition at 1 µg/mL amounted to 80.5% and the inhibition at 10 µg/mL amounted to 79.2%. Moreover, in the series on rape Brassica napus [3] (setting [5]), the inhibition at 1 µg/mL stood at 38.7% and the inhibition at 10 µg/mL is 45.9%.

The record behind these values is PMC6268642, “Facile Synthesis and Herbicidal Evaluation of 4H-3,1-Benzoxazin-4-ones and 3H-Quinazolin-4-ones with 2-Phenoxymethyl Substituents” (Molecules, 2012).
